Results taken from patent publication US8088801B2, “Aryloazol-2-yl cyanoethylamino compounds, method of making and method of using thereof” (Merial Limited, priority 2007, dated 2012).

system: Haemonchus contortus; assay: Method A: screening against Haemonchus contortus, L1 larvae in microtitre plate; conditions: 96 h, test concentration 0.0025 ppm, 4 days assessment, read-out: motility inhibition
Description: Method A: Screening Method to Test Activity of Compounds Against Haemonchus contortus.

Row | SMILES | inhibition at 0.0025 ppm [%]
1 | CC(C#N)(Cn1cc2ccc(Cl)c(Cl)c2n1)NC(=O)c1ccc(OC(F)(F)F)cc1 (stereo not shown) [Compound 2.045, N-[1-Cyano-2-(6,7-dichloro-2H-indazol-2-yl)-1-methylethyl]-4-trifluoromethoxybenzamide] | ≥ 90
2 | CC(C#N)(Cn1nc2c(Br)cc(Cl)c(Br)c2n1)NC(=O)c1ccc(OC(F)(F)F)cc1 (stereo not shown) [Compound 1.083, N-[2-(5-Chloro-4,7-dibromo-2H-benzotriazol-2-yl)-1-cyano-1-methylethyl]-4-trifluoromethoxybenzamide] | ≥ 90
3 | COc1c2ccc(Br)cc2nn1CC(C)(C#N)NC(=O)c1ccc(OC(F)(F)F)cc1 (stereo not shown) [Compound 2.023, N-[2-(6-Bromo-3-methoxy-2H-indazol-2-yl)-1-cyano-1-methylethyl]-4-trifluoromethoxybenzamide] | ≥ 90
4 | COc1c2ccc(C(F)(F)F)cc2nn1CC(C)(C#N)NC(=O)c1ccc(OC(F)(F)F)cc1 (stereo not shown) [Compound 2.025, N-[1-Cyano-2-(3-methoxy-6-trifluoromethyl-2H-indazol-2-yl)-1-methylethyl]-4-trifluoromethoxybenzamide] | ≥ 90
5 | CC(C#N)(Cn1nc2c(Cl)c(Br)c(Cl)c(Br)c2n1)NC(=O)c1ccc(OC(F)(F)F)cc1 (stereo not shown) [Compound 1.088, N-[1-Cyano-2-(4,6-dibromo-5,7-dichloro-2H-benzotriazol-2-yl)-1-methylethyl]-4-trifluoromethoxybenzamide] | ≥ 90
6 | CC(C#N)(Cn1nc2cc(Cl)ccc2c1Cl)NC(=O)c1ccc(OC(F)(F)F)cc1 (stereo not shown) [Compound 2.044, N-[1-Cyano-2-(3,6-dichloro-2H-indazol-2-yl)-1-methylethyl]-4-trifluoromethoxybenzamide] | ≥ 90

same assay, conditions: 96 h, test concentration 0.01 ppm, 4 days assessment, read-out: motility inhibition

Row | SMILES | inhibition at 0.01 ppm [%]
7 | CCOc1c2ccc(Cl)cc2nn1CC(C)(C#N)NC(=O)c1ccc(OC(F)(F)F)cc1 (stereo not shown) [Compound 2.027, N-[2-(6-Chloro-3-ethoxy-2H-indazol-2-yl)-1-cyano-1-methylethyl]-4-trifluoromethoxybenzamide] | ≥ 90
8 | COc1c2ncc(Cl)c(C)c2nn1CC(C)(C#N)NC(=O)c1ccc(OC(F)(F)F)cc1 (stereo not shown) [Compound 3.008, N-[2-(6-Chloro-3-methoxy-7-methyl-2H-pyrazolo[4,3-b]pyridin-2-yl)-1-cyano-1-methylethyl]-4-trifluoromethoxybenzamide] | ≥ 90
9 | CCOc1c2cc(Cl)ccc2nn1CC(C)(C#N)NC(=O)c1ccc(OC(F)(F)F)cc1 (stereo not shown) [Compound 2.014, N-[2-(5-Chloro-3-ethoxy-2H-indazol-2-yl)-1-cyano-1-methylethyl]-4-trifluoromethoxybenzamide] | ≥ 90
10 | CC(C#N)(Cn1nc2c(Cl)c(Cl)ccc2c1Cl)NC(=O)c1ccc(OC(F)(F)F)cc1 (stereo not shown) [Compound 2.039, N-[1-Cyano-1-methyl-2-(3,6,7-trichloro-2H-indazol-2-yl)ethyl]-4-trifluoromethoxybenzamide] | ≥ 90

same assay, conditions: 96 h, test concentration 0.04 ppm, 4 days assessment, read-out: motility inhibition

Row | SMILES | inhibition at 0.04 ppm [%]
11 | COc1c2c(Cl)cc(Cl)cc2nn1CC(C)(C#N)NC(=O)c1ccc(OC(F)(F)F)cc1 (stereo not shown) [Compound 2.021, N-[1-Cyano-2-(4,6-dichloro-3-methoxy-2H-indazol-2-yl)-1-methylethyl]-4-trifluoromethoxybenzamide] | ≥ 90
12 | CC(C#N)(Cn1nc2ccc(Cl)c(Br)c2n1)NC(=O)c1ccc(OC(F)(F)F)cc1 (stereo not shown) [Compound 1.057, N-[2-(4-Bromo-5-chloro-2H-benzotriazol-2-yl)-1-cyano-1-methylethyl]-4-trifluoromethoxybenzamide] | ≥ 90
13 | Cc1c(Cl)cnc2cn(CC(C)(C#N)NC(=O)c3ccc(OC(F)(F)F)cc3)nc12 (stereo not shown) [Compound 3.010, N-[2-(6-Chloro-7-methyl-2H-pyrazolo[4,3-b]pyridin-2-yl)-1-cyano-1-methylethyl]-4-trifluoromethoxybenzamide] | ≥ 90
14 | Cc1cc(Cl)cc2cn(CC(C)(C#N)NC(=O)c3ccc(OC(F)(F)F)cc3)nc12 (stereo not shown) [Compound 2.006, N-[2-(5-Chloro-7-methyl-2H-indazol-2-yl)-1-cyano-1-methylethyl]-4-trifluoromethoxybenzamide] | ≥ 90
15 | CC(C#N)(Cn1nc2cc(Cl)cc(C(F)CF)c2n1)NC(=O)c1ccc(OC(F)(F)F)cc1 (stereo not shown) [Compound 1.078, N-{2-[6-Chloro-4-(1,2-difluoroethyl)-2H-benzotriazol-2-yl]-1-cyano-1-methyl-ethyl}-4-trifluoromethoxybenzamide] | ≥ 90
16 | CC(C#N)(Cn1nc2cc(Cl)cc(Br)c2n1)NC(=O)c1ccc(OC(F)(F)F)cc1 (stereo not shown) [Compound 1.060, N-[2-(4-Bromo-6-chloro-2H-benzotriazol-2-yl)-1-cyano-1-methylethyl]-4-trifluoromethoxybenzamide] | ≥ 90
17 | C=Cc1cc(Cl)cc2nn(CC(C)(C#N)NC(=O)c3ccc(OC(F)(F)F)cc3)nc12 (stereo not shown) [Compound 1.075, N-[2-(6-Chloro-4-vinyl-2H-benzotriazol-2-yl)-1-cyano-1-methylethyl]-4-trifluoromethoxybenzamide] | ≥ 90
18 | CC(C#N)(Cn1nc2cc(Cl)cc(C#N)c2n1)NC(=O)c1ccc(OC(F)(F)F)cc1 (stereo not shown) [Compound 1.067, N-[2-(6-Chloro-4-cyano-2H-benzotriazol-2-yl)-1-cyano-1-methylethyl]-4-trifluoromethoxybenzamide] | ≥ 90

same assay, conditions: 96 h, test concentration 0.15 ppm, 4 days assessment, read-out: motility inhibition

Row | SMILES | inhibition at 0.15 ppm [%]
19 | COC(=O)c1cc(Cl)cc2nn(CC(C)(C#N)NC(=O)c3ccc(OC(F)(F)F)cc3)nc12 (stereo not shown) [Compound 1.084, Methyl 6-chloro-2-[2-cyano-2-({[4-(trifluoromethoxy)phenyl]carbonyl}-amino)propyl]-2H-benzotriazole-4-carboxylate] | ≥ 90
20 | CC(C#N)(Cn1nc2ccc(Cl)cc2n1)NC(=O)c1ccc(S(=O)(=O)C(F)(F)F)cc1 (stereo not shown) [Compound 1.031, N-[2-(5-Chloro-2H-benzotriazol-2-yl)-1-cyano-1-methylethyl]-4-trifluoromethylsulfonylbenzamide] | ≥ 90
21 | COc1c2ccc([N+](=O)[O-])cc2nn1CC(C)(C#N)NC(=O)c1ccc(OC(F)(F)F)cc1 (stereo not shown) [Compound 2.033, N-[1-Cyano-2-(3-methoxy-6-nitro-2H-indazol-2-yl)-1-methylethyl]-4-trifluoromethoxybenzamide] | ≥ 90
22 | Cc1c2cc(Cl)cc(Cl)c2nn1CC(C)(C#N)NC(=O)c1ccc(OC(F)(F)F)cc1 (stereo not shown) [Compound 2.010, N-[1-Cyano-2-(5,7-dichloro-3-methyl-2H-indazol-2-yl)-1-methylethyl]-4-trifluoromethoxybenzamide] | ≥ 90
23 | CC(C#N)(Cn1nc2cc(C(F)(F)F)cc(C#N)c2n1)NC(=O)c1ccc(OC(F)(F)F)cc1 (stereo not shown) [Compound 1.054, N-[1-Cyano-2-(4-cyano-6-trifluoromethyl-2H-benzotriazol-2-yl)-1-methylethyl]-4-trifluoromethoxybenzamide] | ≥ 90
24 | CC(C#N)(Cn1nc2cc(C(F)(F)F)cc(C(F)(F)F)c2n1)NC(=O)c1ccc(OC(F)(F)F)cc1 (stereo not shown) [Compound 1.018, N-[2-(4,6-Bis(trifluoromethyl)-2H-benzotriazol-2-yl)-1-cyano-1-methylethyl]-4-trifluoromethoxybenzamide] | ≥ 90
25 | CSCC(C#N)(Cn1nc2ccc(Cl)cc2n1)NC(=O)c1ccc(OC(F)(F)F)cc1 (stereo not shown) [Compound 1.061, N-[2-(5-Chloro-2H-benzotriazol-2-yl)-1-cyano-1-(methylthiomethyl)ethyl]-4-trifluoromethoxybenzamide] | ≥ 90
26 | Cc1c(Br)cnc2nn(CC(C)(C#N)NC(=O)c3ccc(OC(F)(F)F)cc3)nc12 (stereo not shown) [Compound 3.003, N-[2-(6-Bromo-7-methyl-2H-[1,2,3]triazolo[4,5-b]pyridin-2-yl)-1-cyano-1-methylethyl]-4-trifluoromethoxybenzamide] | ≥ 90
27 | CC(C#N)(Cn1nc2ccc(Cl)cc2n1)NC(=O)c1ccc(C(F)(F)F)cc1 (stereo not shown) [Compound 1.002, N-[2-(5-Chloro-2H-benzotriazol-2-yl)-1-cyano-1-methylethyl]-4-trifluoromethylbenzamide] | ≥ 90
28 | CC(C#N)(Cn1nc2cc(Cl)c(Cl)cc2n1)NC(=O)c1ccc(OC(F)(F)F)cc1 (stereo not shown) [Compound 1.010, N-[1-Cyano-2-(5,6-dichloro-2H-benzotriazol-2-yl)-1-methylethyl]-4-trifluoromethoxybenzamide] | ≥ 90
29 | CC(C#N)(Cn1nc2cc(Cl)cc(C=O)c2n1)NC(=O)c1ccc(OC(F)(F)F)cc1 (stereo not shown) [Compound 1.079, N-[2-(6-Chloro-4-formyl-2H-benzotriazol-2-yl)-1-cyano-1-methylethyl]-4-trifluoromethoxybenzamide] | ≥ 90
30 | CC(C#N)(Cn1nc2cc(Cl)cc(Cl)c2n1)NC(=O)c1ccc(S(=O)(=O)C(F)(F)F)cc1 (stereo not shown) [Compound 1.025, N-[1-Cyano-2-(4,6-dichloro-2H-benzotriazol-2-yl)-1-methylethyl]-4-trifluoromethylsulfonylbenzamide] | ≥ 90
31 | Cc1ccc2nn(CC(C)(C#N)NC(=O)c3ccc(OC(F)(F)F)cc3)nc2c1 (stereo not shown) [Compound 1.006, N-[1-Cyano-1-methyl-2-(5-methyl-2H-benzotriazol-2-yl)ethyl]-4-trifluoromethoxybenzamide] | ≥ 90
32 | CC(C#N)(Cn1nc2cc(Cl)cc(CO)c2n1)NC(=O)c1ccc(OC(F)(F)F)cc1 (stereo not shown) [Compound 1.081, N-[2-(6-Chloro-4-hydroxymethyl-2H-benzotriazol-2-yl)-1-cyano-1-methylethyl]-4-trifluoromethoxybenzamide] | ≥ 90
33 | CC(C#N)(Cn1nc2cccc(Cl)c2n1)NC(=O)c1ccc(Oc2ccccc2)cc1 (stereo not shown) [Compound 1.045, N-[2-(4-Chloro-2H-benzotriazol-2-yl)-1-cyano-1-methylethyl]-4-phenoxybenzamide] | ≥ 90
34 | CC(C#N)(Cn1cc2cc(Cl)cc(Cl)c2n1)NC(=O)c1ccc(Oc2ccccc2)cc1 (stereo not shown) [Compound 2.004, N-[1-Cyano-2-(5,7-dichloro-2H-indazol-2-yl)-1-methylethyl]-4-phenoxybenzamide] | ≥ 90
